Test results reported in patent US20090162855A1, “Identification of Genetic Variants Associated with Increased Severity of Pulmonary Disease” (CASE WESTERN RESERVE UNIVERSITY, priority 2007, published 2009).
Square brackets hold non-standard residues; d marks the D form. Peptide text beside a SMILES is read from it.

What was measured:
[1] = test system: tracheal smooth muscle cells; assay: Mitogenic index by BrdU incorporation in primary cultures of tracheal smooth muscle cells; type: cell-based, human; conditions: for proliferation (BrdU incorporation), treated vs untreated: cultures from 9 individuals, estrogen 72 hrs
Description: (§1) A cellular phenotype that could potentially explain the genotype-phenotype association is a difference in smooth muscle proliferation. To be able to assess this in vitro, we have carried out studies examining the mitogenic effects of the receptor agonist, endothelin, on cultured smooth muscle cells, as well as those of estrogen and Transforming Growth Factor Beta 1 (TGFβ1). In these studies, TGFβ1 is used as a control mitogen in that it exerts its effect on proliferation independent of the endothelin receptor. […] Primary cultures of tracheal smooth muscle cells from 4 individuals were treated with TGFβ1, estrogen, endothelin, or estrogen and endothelin (Estr/Endo) for 72 hrs, and assayed for mitogenic index by BrdU incorporation (FIG. 8A) or for cell number (FIG. 8B). Values shown are ratios of treated to untreated (control) cells grown simultaneously. Each cell line and condition was carried out in triplicate. […] An EDNRA antagonist, BQ123 (Sigma), was included at 1 μM to determine if EDNRA-mediated effects could be blocked.
A larger group of cell lines stratified by genotype was examined. Primary cultures of tracheal smooth muscle cells from 9 individuals were treated with estrogen for 72 hrs, assayed for BrdU incorporation and compared to control cultures (no estrogen). FIG. 9 provides the ratio of treated to untreated cells. […] Treatment with estrogen appears to result in increased proliferation, but the effect is genotype dependent. This is in contrast to other reports of vascular smooth muscle in which estrogen inhibits proliferation.

smooth muscle cells = assay: Intracellular calcium mobilization from sarcoplasmic reticulum measured using Fura-2; type: cell-based; conditions: 24 hrs in endothelin, washout
Procedure: FIG. 12 is a graph showing the response of cultures of smooth muscle cells to endothelin-1 (ET-1) acutely (control) and sarcoplasmic reticulum release of calcium measured by Fura-2 fluorescence ratios.
Smooth muscle cells of various EDNRA genotype combinations were examined for changes in intracellular calcium in response to endothelin. The effects of chronic exposure were assessed by incubating the cells for 24 hrs in endothelin, followed by a brief washout (30 minutes) and then re-exposure to endothelin and measurement of calcium release. […] For these assays, intracellular calcium mobilization from sarcoplasmic reticulum was measured using Fura-2. No significant differences were observed between subjects with regards to magnitude or duration of response from acute stimulation (FIG. 12, control). However, if cultured for 24 hrs in the presence of endothelin, washed out just before reexposure, there is a significant difference between subjects in the magnitude of response (FIG. 12, ET-1 conditioned).

human ASM cells = assay: Actin stress fiber formation (TRITC-phalloidin) in cultured ASM cells; type: cell-based; conditions: cultured in presence of ET-1 for 24 hours; preliminary data
Description: FIG. 11 is a pair of micrographs of cultured ASM cells placed in either serum free media (A) or media containing ET-1 (B) for 24 hr; and
EDNRA is expressed on airway and vascular smooth muscle. Using indirect immunocytochemical staining of human ASM cells from the trachealis muscle retrieved from necroscopy tissue of 53 individuals, we have determined these cells consistently display EDNRA on the cell membrane (FIG. 10—staining is predominantly along cell membranes). […] This implies a functional receptor with ligand binding and intact intracellular signaling pathways.

[2] = test system: tracheal smooth muscle cells; type: cell-based, human; conditions: cultures from 4 individuals, 72 hrs
Description: as §1

EDNRA mRNA = assay: Quantitative RT-PCR of EDNRA mRNA in smooth muscle cell lines treated with estrogen; type: cell-based, human; conditions: 9 smooth muscle cell lines (5 female, 4 male), estrogen 24 hours, vs unstimulated cells, 18S rRNA internal control
Procedure: Effects of these variants on EDNRA mRNA levels were examined. Primary airway smooth muscle cells from 10 non-CF individuals were harvested for DNA and RNA. Airway smooth muscle cells were cultured from tracheas obtained from autopsy. Cells were isolated from human trachealis muscle by digesting with collagenase and elastase in the presence of soybean trypsin inhibitor at 37° C. as previously described. The cells were harvested by centrifugation after filtering through Nytex and grown in Dulbecco's modified eagle's medium (DMEM/F12 1:1) containing 10% fetal bovine serum, 100 U/ml penicillin and 100 μg/ml streptomycin at 37° C. in a humidified atmosphere with 5% CO2 and 95% air. DNA samples were genotyped for rs1801708 and rs5335 and EDNRA mRNA quantified from total RNA by real time RT-PCR. EDNRA mRNA was quantified relative to 18s rRNA in 10 airway smooth muscle cell lines and compared by genotype. RNA was isolated from airway smooth muscle cells using the Qiagen RNeasy kit. […] A Ct was established for each sample and compared to standard curves to determine mRNA quantity. […] Values are expressed as a ratio of EDNRA: 18s copies. […]
Nine smooth muscle cell lines were exposed to estrogen and mRNA levels compared to unstimulated cells. […] Quantitative RT-PCR was carried out to determine copy number using 18S rRNA as an internal control. […]

CC(C)C[C@@H]1NC(=O)[C@@H](C(C)C)NC(=O)[C@@H]2CCCN2C(=O)[C@@H](CC(=O)O)NC(=O)[C@@H](Cc2c[nH]c3ccccc23)NC1=O [BQ123] (cyclo(L[dW][dD]P[dV]))
mitogenic index of cells with EDNRA antagonist included ([1]; BQ123 at 1 μM): reduced the mitogenic index

CC[C@H](C)[C@H](NC(=O)[C@H](CC(=O)O)NC(=O)[C@H](CC(C)C)NC(=O)[C@H](Cc1c[nH]cn1)NC(=O)[C@@H]1CSSC[C@H](N)C(=O)N[C@@H](CO)C(=O)N[C@H]2CSSC[C@H](NC(=O)[C@H](CCC(=O)O)NC(=O)[C@H](CCCCN)NC(=O)[C@H](CC(=O)O)NC(=O)[C@H](CCSC)NC(=O)[C@H](CC(C)C)NC(=O)[C@H](CO)NC(=O)[C@H](CO)NC2=O)C(=O)N[C@@H](C(C)C)C(=O)N[C@@H](Cc2ccc(O)cc2)C(=O)N[C@@H](Cc2ccccc2)C(=O)N1)C(=O)N[C@H](C(=O)N[C@@H](Cc1c[nH]c2ccccc12)C(=O)O)[C@@H](C)CC [endothelin-1]
calcium release activity lost on re-exposure (smooth muscle cells; cells with "adverse" genotypes): 10-15% | calcium release activity on re-exposure, of pre-exposure activity (smooth muscle cells; cells with "protective" genotype of 3′ markers): 15% | formation of actin stress fibers (human ASM cells): increases the formation of actin stress fibers

Transforming Growth Factor Beta 1 [TGFβ1]
mitogenic index (BrdU incorporation), ratio of treated to untreated cells ([1]; cultures from 4 individuals, 72 hrs): tripled | cell number, ratio of treated to untreated cells [2]: did not significantly alter cell number

estrogen
increase of EDNRA mRNA levels in response to hormone treatment (EDNRA mRNA): approximately 5 fold | proliferation (BrdU incorporation), treated vs untreated ([1]; cells with "protective" GG genotype): no effect | proliferation (BrdU incorporation), treated vs untreated ([1]; cells with "severe" AA genotype): increase proliferation
